From patent US20120101277A1, “CRYSTALLINE FORM OF POSACONAZOLE” (SANDOZ AG, priority 2009, published 2012)

What was measured:
[1] = under the conditions investigated in WO 99/18097; cited from earlier work
[2] = Moisture sorption isotherm (SPS-11 moisture sorption analyzer); assay type: physicochemical
Method: The moisture sorption isotherm was recorded with a SPS-11 moisture sorption analyzer (MD Mess-technik, Ulm, D). The measurement cycle was started at 0% relative humidity (RH), increased in 10% steps up to 90% RH and in a 5% step up to 95% RH. The equilibrium condition for each step was set to a constant mass±0.003% over 49 min. The temperature was 25±0.1° C.
At ambient conditions form II-S contains approximately 1 mol water (monohydrate). […] The maximum water content peaks at 5.2% at 90% relative humidity, which corresponds to a water mol ratio of 2.0 (FIG. 4).

Structure (SMILES)	stability of the crystalline form [1]	water content at ambient conditions ([2]; ambient conditions, per mole posaconazole (monohydrate))	water mol ratio at maximum water content ([2]; at 90% relative humidity, 25 °C, corresponds to the 5.2% water content)	step of water uptake/loss ([2]; between 0 and 10% relative humidity)	maximum water content ([2]; moisture sorption isotherm, at 90% relative humidity, 25 °C) [%]
CC[C@@H]([C@H](C)O)n1ncn(-c2ccc(N3CCN(c4ccc(OC[C@@H]5CO[C@@](Cn6cncn6)(c6ccc(F)cc6F)C5)cc4)CC3)cc2)c1=O [form II, posaconazole]	unstable	–	–	–	–
CC[C@@H]([C@H](C)O)n1ncn(-c2ccc(N3CCN(c4ccc(OC[C@@H]5CO[C@@](Cn6cncn6)(c6ccc(F)cc6F)C5)cc4)CC3)cc2)c1=O [form II-S, 2,5-anhydro-1,3,4-trideoxy-2-C-(2,4-difluorophenyl)-4-[[4-[4-[4-[1-[(1S,2S)-1-ethyl-2-hydroxypropyl]-1,5-dihydro-5-oxo-4H-1,2,4-triazol-4-yl]phenyl]-1-piperazinyl]phenoxy]methyl]-1-(1H-1,2,4-triazol-1-yl)-D-threo-pentitol]	–	approximately 1 mol water	2.0	over 0.5 mol water	5.2
